The subject of assay [1] is HCT116 IC60 1-OHPR tumors. The experiment in a line: Xenograft model, oxaliplatin resistant cells. The assay is classed as in vivo, NSG mice. Particulars: 1-OHP 2 mg/kg + compound 5 mg/kg, compared to 1-OHP alone. On the procedure:
Tumors from different groups were excised at the end of the experiments. […] For these experiments, RNA and protein was isolated from tumors obtained at the end point of the xenograft experiment. RNA and the protein levels of MRP2 were determined by RT-qPCR and western blotting with anti-MRP2 antibody. For each group three tumor samples were analyzed (FIG. 6F, 6G). […] The levels of the indicated MDR genes were quantitated from three tumor samples from each group. Mean±S.D. (FIG. 13A). […] The experiment was repeated three times and one representative experiment has been shown (FIG. 13B).
In all cases tumor volume were measured at the indicated days post-injection using the following formula: Tumor volume=½(length×width2).

Assay [2] has as its target T1, RAD54 chromatin remodeling activity (Homo sapiens, UniProt Q92698).
T1 construct: GST RAD54 (1-747) (WT), GST BLM (1-1417) (WT), His RAD54 (1-747) (WT); made in house; host or cells: E. coli BL-21 DE3
T1 sequence (Q92698 1-747): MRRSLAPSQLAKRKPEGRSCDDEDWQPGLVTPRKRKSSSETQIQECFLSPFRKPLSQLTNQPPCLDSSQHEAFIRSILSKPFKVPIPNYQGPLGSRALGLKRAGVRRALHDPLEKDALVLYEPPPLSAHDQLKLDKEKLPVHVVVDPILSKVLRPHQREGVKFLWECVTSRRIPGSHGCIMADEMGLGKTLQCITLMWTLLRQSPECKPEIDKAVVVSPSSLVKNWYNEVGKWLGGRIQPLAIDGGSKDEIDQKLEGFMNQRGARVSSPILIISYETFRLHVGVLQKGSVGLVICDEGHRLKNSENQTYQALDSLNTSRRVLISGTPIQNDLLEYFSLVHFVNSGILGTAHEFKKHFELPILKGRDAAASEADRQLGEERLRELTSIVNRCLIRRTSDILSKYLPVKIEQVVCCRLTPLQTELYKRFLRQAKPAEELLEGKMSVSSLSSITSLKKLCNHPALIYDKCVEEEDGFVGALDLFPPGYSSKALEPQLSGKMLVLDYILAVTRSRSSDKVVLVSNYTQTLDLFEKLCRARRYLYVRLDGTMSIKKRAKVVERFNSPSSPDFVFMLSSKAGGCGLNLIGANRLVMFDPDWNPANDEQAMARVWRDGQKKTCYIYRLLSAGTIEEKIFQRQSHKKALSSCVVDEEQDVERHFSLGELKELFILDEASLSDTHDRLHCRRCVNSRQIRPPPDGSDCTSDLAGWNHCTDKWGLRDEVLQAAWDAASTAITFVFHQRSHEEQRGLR
Put plainly: Restriction enzyme accessibility (REA) assay on chromatinized G5E4 array. The assay is classed as biochemical. The settings on record: 10 μM compound, +ATP.
From the text: (§1) The data is from three independent experiments.
as §1

The test system of a further assay is HCT116 IC60 CPTR tumors. The experiment in a line: Xenograft model, camptothecin resistant cells. The settings on record: for tumor growth: CPT 1.25 mg/kg + compound 5 mg/kg intraperitoneally every 3 days, compared to CPT alone; for apoptosis in tumors, TUNEL positivity: dual treatment with CPT; for cell proliferation in tumors, Ki67 and PCNA levels: dual treatment with CPT/1-OHP.

For a further assay, the system named is CT26 cells. Put plainly: Syngeneic or allogenic model, CT26. The class given is in vivo, BALB/c mice. The settings on record: for tumour volume, chemoresistance: CPT + compound. On the procedure:
Xenografts assays were carried out in BALB/c mice using CT26 cells.
RNA (FIG. 17D) or protein (FIG. 17E) levels of the indicated MDR genes were determined by RT-qPCR or immunoblotting with the indicated antibodies.

Another assay concerns the target T2, RAD54 ATPase activity (Homo sapiens, UniProt Q92698).
T2 construct: made in house; host or cells: E. coli BL-21 DE3
T2 sequence (Q92698 1-747): T1 sequence (Q92698 1-747)
The experiment in a line: ATPase assay. The class given is biochemical. Particulars: 10 μM compound. The protocol:
The data is from three independent experiments. Mean±S.D.
The presence of the disruptors also led to a decrease in the ATP binding to RAD54.
Assay for RAD54 ATPase activity was carried out as per the previously published protocol (Srivastava et al., 2009). His-RAD54 (120 nM) was incubated with the GST-BLM (1-212) or BLM_peptide or SCM_peptide (180 nM). […] 1 μl of the sample was spotted on the polyethyleneimine-coated TLC plate, resolved in 1M Formic Acid and 0.3M LiCl. The products of ATP hydrolysis were then visualized by Phosphoimager scans taken in Typhoon™ laser-scanner platform (Cytiva) and quantitated using the inbuilt software.

For assay [3], the system named is homologous recombination in HCT116 IC60 CPTR cells. Put plainly: HR assay. The class given is cell-based. The settings on record: HR substrate transfected for 72 hours. On the procedure: (§2) Concentrations of CPT used: 0.140 nM, 20 nM, 50 nM, 1000 nM. Concentration of 1-OHP: 0.14 μM, 2 μM, 4 μM, 6 μM, 8 μM. Concentrations of CDDP used: 0.140 μM, 2 μM, 5 μM, 10 μM. The percentage of viable cells were determined by MTT assays (FIG. 12A-12C). The data in FIG. 12A and FIG. 12C is from three independent experiments and the data in FIG. 12B is from nine independent experiments. […] The levels of MRP2, MRP3, MRP5, MXR were quantitated from three independent experiments. […] Specifically, HCT116 IC60 CPTR cells were transfected with the HR substrate for 72 hours and the levels of HR was determined (FIG. 6A). The data is from three independent experiments. […] The number of soft agar colonies in each condition were counted. The data is from three independent experiments.
For HR assay, 10 μg of the HR plasmid (Seluanov et al., 2010) was digested with I-SceI, purified and eluted into 20 μl of 10 mM TrisHCl pH 8.0. 5 μg of the linearized reporter cassette along with 100 ng of tdTomato-N1 plasmid were transfected in an exponentially growing 10 cm dish of cells using FuGENE® HD Transfection Reagent. After 3 days of transfection, the cells were harvested. The GFP positive and TdRed positive cells were analysed by FACS. SCE assays were carried out as described earlier (Chabosseau et al., 2011).

The test system of assay [4] is MRP2 in HCT116 WT IC60 CPTR cells. The experiment in a line: MRP2 activity, CDF accumulation. The assay is classed as cell-based. Particulars: combinatorial treatment with CPT. The protocol:
The cells were incubated with MRP2 substrate CDFD for 30 minutes at 37° C. The accumulation of florescent product CDF was determined as a measure of MRP2 activity (FIG. 12E). The data is from three independent experiments. Mean±S.D.

The test system of another assay is HCT116 IC60 CPTR cells. The experiment in a line: Soft agar assay. The assay is classed as cell-based. The settings on record: 100 nM compound along with 120 nM of CPT. On the procedure: as §2
3000 cells mixed with 0.4% agar and seeded on top of the 6-well plates pre-coated with 0.8% agar. The resistant cells were treated with 120 nM of CPT. Post-incubation cells were seeded. […] The colonies were then counted after 15 days after staining with 0.25% Crystal Violet.

As to `CC(=O)Nc1nnc(S(N)(=O)=O)s1` [C3, Acetazolamide], the tumor growth result in assay [1] is listed as “inhibited the tumor growth”. Also, the “BLM (1-212) dependent enhancement of RAD54 chromatin remodeling, fraction uncut” value (shortened to “BLM … fraction uncut”) in assay [2] is reported as “decrease the efficiency of BLM dependent enhancement of RAD54 chromatin remodeling activity”. Also, in the assay on HCT116 IC60 CPTR tumors, the tumor growth entry was “inhibited the tumor growth”; the “apoptosis in tumors, TUNEL positivity” value is given as “increased apoptosis”; the “cell proliferation in tumors, Ki67 and PCNA levels” value (“cell proliferation in tumors” below) was “Decreased cell proliferation”. The “tumour volume, chemoresistance” value in the assay on CT26 cells is “reverses chemoresistance”. Moreover, at RAD54 ATPase activity, the “BLM dependent enhancement of ATPase activity of RAD54 (ATP hydrolysis)” value (“BLM dependent enhancement” below) is reported as “reduced the extent of ATP hydrolysis”. Also, the “levels of HR” value in assay [3] is recorded as “decreased the levels of the HR”. For the same molecule, the “MRP2 activity, accumulation of CDF” value in assay [4] was “decreased MRP2 activity”. In addition, the “number of soft agar colonies (anchorage independent growth)” value (shortened to “number of soft agar colonies”) with HCT116 IC60 CPTR cells is given as “decreased anchorage independent cell growth”.
For the molecule `OCCN(CCO)c1nc(N2CCCCC2)c2nc(N(CCO)CCO)nc(N3CCCCC3)c2n1` [C7, Dipyridamole], in assay [1], the tumor growth result is “inhibited the tumor growth”. Besides, in assay [2], the “BLM … fraction uncut” value is “decrease the efficiency of BLM dependent enhancement of RAD54 chromatin remodeling activity”. In addition, in the assay with HCT116 IC60 CPTR tumors, the tumor growth result is on record as “inhibited the tumor growth”; the “apoptosis in tumors, TUNEL positivity” value is “increased apoptosis”; the “cell proliferation in tumors” value was “Decreased cell proliferation”. In addition, in the assay with CT26 cells, the “tumour volume, chemoresistance” value is given as “reverses chemoresistance”. For the same molecule, on RAD54 ATPase activity, the “BLM dependent enhancement” value is listed as “reduced the extent of ATP hydrolysis”. The “levels of HR” value in assay [3] is on record as “decreased the levels of the HR”. The “MRP2 activity, accumulation of CDF” value in assay [4] is “decreased MRP2 activity”. Further, the “number of soft agar colonies” value with HCT116 IC60 CPTR cells was “decreased anchorage independent cell growth”.
On to `CN1CCN(C2=Nc3ccccc3Oc3ccc(Cl)cc32)CC1.O=C(O)CCC(=O)O` [C17, Loxapine succinate], for which the tumor growth result in assay [1] was “inhibited the tumor growth”. In addition, in assay [2], the “BLM … fraction uncut” value is reported as “decrease the efficiency of BLM dependent enhancement of RAD54 chromatin remodeling activity”. Besides, in the assay on HCT116 IC60 CPTR tumors, the tumor growth result is reported as “inhibited the tumor growth”; the “apoptosis in tumors, TUNEL positivity” value is reported as “increased apoptosis”; the “cell proliferation in tumors” value is “Decreased cell proliferation”. The “RNA and protein levels of multiple MDR genes (including MRP2) in tumors” value with HCT116 IC60 CPTR tumors (co-treated with CPT 1.25 mg/kg and compound 5 mg/kg, end point) is on record as “very significantly decreased”. Besides, the “tumour volume, chemoresistance” value in the assay with CT26 cells is on record as “reverses chemoresistance”. Moreover, in the assay with CT26 cells (without or with compound treatment), the “RNA and protein levels of the MDR genes in tumours” value is “decreased”. The “BLM dependent enhancement” value on RAD54 ATPase activity is on record as “reduced the extent of ATP hydrolysis”. Further, the “levels of HR” value in assay [3] is “decreased the levels of the HR”. Further, the “MRP2 activity, accumulation of CDF” value in assay [4] is listed as “decreased MRP2 activity”. Moreover, the “number of soft agar colonies” value in the assay with HCT116 IC60 CPTR cells is recorded as “decreased anchorage independent cell growth”.
